Consider 86 molecules from a melting point compilation (Tetko et al.; mined from patent text by program, amines drawn as free bases though some values may be those of a salt).

One may read the melting point as the temperature, or range, at which the solid turns liquid.

The molecule `Cc1cc(C=O)ccc1C(N)=O` yielded a melting point of 119 to 121 °C.
`CN(C)C=Cc1ccc(-c2csc(-c3ccc(F)cc3)n2)cc1[N+](=O)[O-]` came in with a melting point of 137 to 138 °C.
As for `CCOc1ccc(C(=O)c2c(-c3ccc(OC)cc3)sc3cc(OC)ccc23)cc1`, the figure is 124 to 125 °C; as for `CON(C)C(=O)c1cccc(-c2nc3sccn3c2-c2ccnc(N[C@@H]3CCCN(S(=O)(=O)c4ccc(Cl)cc4)C3)n2)c1`, 114 to 115 °C; as for `Cc1ccc(S(=O)(=O)O[C@@H]2CCCN(S(=O)(=O)c3ccc(C)cc3)C2)cc1`, 140 to 147 °C.
In turn, `Cc1cc2ccccc2n1Nc1ccncc1` showed a melting point of 75 to 78 °C.
`Cc1[nH][nH]c(=O)c1Cc1ccc2ccccc2c1`: the melting point was 240 to 244 °C.
In the case of `O=C1N(CC2CCCO2)c2c(F)cccc2C12COc1cc3c(cc12)CCO3` (stereo unspecified) it was 169 to 170 °C; in that of `CC(C(=O)Nc1ccc(C(=O)O)cc1)c1ccc2c(c1)C(C)(C)CCC2(C)C` (stereo unspecified), 195 to 196 °C; in that of `CN(C)CCCCC(=O)NC(Cc1c[nH]c2ccccc12)C(=O)CCc1cc(C(F)(F)F)cc(C(F)(F)F)c1` (stereo unspecified), 140 °C.
As for `CON=C(C#CC(=O)c1ccc(Cl)cc1)C(=O)OC`, the figure is 172 to 173 °C; as for `CON=C(C(=O)OC)c1ccccc1CSc1nc2ccccc2s1`, 113 to 114 °C; as for `ClCc1c(Cl)nnc(Cl)c1Cl`, 102 to 104 °C.
Take `C=C(C(=O)c1ccc(OC)c(Cl)c1Cl)c1ccc(Br)cc1`: the melting point lay in the range of 110 to 116 °C.
In the case of `OCCCc1cn(-c2ccc(C(F)(F)F)cn2)nc1-c1ccccc1` it was 99 to 100 °C.
As for `COc1ccc(-c2[nH]c3ccccc3c(=O)c2C(=O)O)cc1`, the figure is greater than 300 °C; as for `Cc1c(C)c(N2CCN(c3ccc(Cl)cc3)CC2)c(C)c2c1OC(C)(C)C2`, 226 to 229 °C.
As for `Cc1ccc(-n2nc(C(C)(C)C)cc2NC(=O)Nc2ccc(OCCCc3ccncc3)c3ccccc23)cc1`, the figure is 205 to 207 °C; as for `COc1cccc(CNC(=O)c2nc3ccc(-c4nnn[nH]4)cc3c(=O)[nH]2)c1`, 258 to 260 °C.
Take `COC(=O)c1ccc(OC)c(NC(=N)c2ccc(F)c(Cl)c2)c1`: the melting point was determined as 120 °C.
As for `Nc1cccc2c1COC2`, the figure is 85 to 89 °C; as for `Nc1cccc(C=CC(=O)N2CCc3c([nH]c4ccccc34)C2c2ccc3c(c2)OCO3)c1` (stereo unspecified), 139 to 141 °C; as for `Cc1cc(-c2[nH]c3ccc(O)cc3c2C)cc(C)c1O`, 174 to 176 °C.
As for `O=[N+]([O-])c1nccn1CC(O)CN1C2CCCCCC21` (stereo unspecified), the figure is 91 to 91.5 °C.
As for `CCS(=O)(=O)Nc1ccc2c(c1)S(=O)(=O)C=C(c1c(O)c3cc(F)ccc3n(CCC3CC3)c1=O)N2`, the figure is 140 to 142 °C.
`CC(=O)Nc1ccc(Sc2ccc(Cl)cc2)cc1`: the melting point fell in the range of 140 to 141 °C.
As for `CCOC(=O)c1c(-c2ccccc2)c2ccc(Cl)cc2c(=O)n1C`, the figure is 152 to 153 °C; as for `CCOC(=O)C1=Cc2cc(Cl)cc(CO[N+](=O)[O-])c2OC1C(F)(F)F` (stereo unspecified), 53 °C.
As for `Cc1ccccc1C(Oc1cc(OCc2ccoc2)ccc1C#N)C(=O)O` (racemic), the melting point is 141 to 143 °C.
In the case of `N#Cc1ccc(C(=O)N[C@H]2CC[C@H](CCN3CCC(c4cccc5c4CCO5)CC3)CC2)cc1` it was 230 °C; in that of `Brc1ccc(-c2ccc3nncn3n2)cc1`, 209 to 211 °C; in that of `N#Cc1cncc(-c2ccc(OCc3ccccc3)cc2)c1Nc1ccc2[nH]ccc2c1`, 163 to 165 °C.
As for `CCOC(=O)c1c(C(F)(F)F)nc(C(F)F)c(C(=O)OC)c1OCC`, the figure is 59 to 61 °C; as for `Cc1cc(C#N)cc(CNc2c(NC(C)C(C)(C)C)c(=O)c2=O)c1` (stereo unspecified), 244 to 247 °C.
In the case of `COC(=O)C(O)C(CC(C)C)NC(=O)C(CC(C)C)NC(=O)C(CC(=O)N1CCOCC1)Cc1cccc2ccccc12` (mixture of isomers) it was 69 to 70 °C; in that of `CC(C)CCOC(=O)COc1cc(F)ccc1C(=S)NCc1cccc([N+](=O)[O-])c1`, 56 to 58 °C; in that of `COC1(Nc2ccccc2CCCc2ccc(Cl)c(Cl)c2)CC=C(C(=O)O)C=C1[N+](=O)[O-]` (stereo unspecified), 127 to 129 °C.
Consider `COC(=O)C[C@H]1C[C@@H](C=Cc2ccccc2)OC(C)(C)O1` (relative stereo), for which the melting point was 84 to 86.5 °C.
`COc1ccc([N+](=O)[O-])c(Nc2ccc3cn[nH]c3c2)n1` returned a melting point of 261 to 264 °C.
For the molecule `CC1(C)C=C(c2ccccn2)c2cc(F)c(F)cc2OC1`, the melting point was 86 °C.
In turn, `C=C1CC2C(CCC3(C)C2CCC3(OC(C)=O)C(=O)COC(C)=O)C2(C)CCC(=O)C=C12` (stereo unspecified) had a melting point of 227 to 228 °C.
For the molecule `COCc1nc2cccnc2n1Cc1ccc(C(=O)N(C(C)C)C2CCCCC2)cc1OC`, the melting point was 126 °C.
`CCC(C)(C)CNc1c(N=O)c(C)nn1C`: the melting point was 45 to 50 °C.
Molecule `Cc1cccc(C)c1Nc1nc(N)ns1` showed a melting point of 180 °C.
The molecule `O=[N+]([O-])c1ccc(-c2ccc(Cl)cc2)cc1` returned a melting point of 142 to 145 °C.
In the case of `CC(=O)OCC1OC(n2cc(C(Br)=CI)c(=O)[nH]c2=O)C(OC(C)=O)C1OC(C)=O` (stereo unspecified) it was 86 to 88 °C; in that of `CCc1cc(C)cc(C)c1C1C(=O)N2CCN(OC)CCN2C1=O`, 213 to 215 °C.
The molecule `CC(=O)Nc1nc2cc(-c3ccc(C=C4SC(=O)NC4=O)cn3)cc(C34CC5CC(CC(C5)C3)C4)c2o1` displayed a melting point greater than 360 °C.
`CN1CCN(C2=Nc3ccccc3N(C)c3cscc32)CC1` gave a melting point of 83 to 85 °C.
As for `CC(C)N(Cc1ccc(Cl)c(Cl)c1)S(=O)(=O)c1ccc(Cl)s1`, the figure is 66 to 67 °C; as for `NS(=O)(=O)CS(=O)(=O)c1ccc(S(=O)(=O)CCCO)cc1`, 200 °C; as for `O=C(Nc1cccc(C(=O)O)c1)OCc1cn(-c2cc3cc(C(=O)O)c(=O)[nH]c3cc2[N+](=O)[O-])cn1`, greater than 300 °C.
As for `CCC(CC)Nc1c(NCc2ccc(Cl)c(Cl)c2)c(=O)c1=O`, the figure is 268 to 269 °C; as for `COc1ccccc1CN1Cc2c(-c3ccccc3)c3cc(C)c(C)cc3c(=O)n2CC1=O`, 211 to 214 °C; as for `COc1ccc(Oc2c([N+](=O)[O-])cc(C(=O)O)cc2S(N)(=O)=O)cc1`, 229 to 230 °C.
`COC(=O)CCc1cnoc1-c1ccc2c(c1)OCO2` displayed a melting point of 84 to 85 °C.
`CC(=O)NC[C@H]1CN(c2ccc(N3CCC(n4ncn(C)c4=S)CC3)c(F)c2)C(=O)O1` had a melting point of 182 to 185 °C.
As for `CN(C)c1cccc(OCC(=O)C=P(c2ccccc2)(c2ccccc2)c2ccccc2)c1`, the figure is 110 to 115 °C; as for `CON(C)C(=S)Nc1ccc(OCCc2ccccc2)c(Cl)c1`, 116 to 117 °C.
For `CCN1CCN(c2cccc3c2C[C@H](NC(C)=O)CC3)CC1`, the melting point is 142 to 143 °C.
The molecule `C=CCc1c2c(cc3c(=O)cc(C(=O)OCC)oc13)CCCC2` gave a melting point of 98 to 101 °C.
As to `Cc1cc(CCCCCOc2ccc(-c3nc4ccccc4s3)cc2)on1`, the melting point was 70.5 to 71.2 °C.
As for `Nc1cc(-n2cc(C(=O)O)c(=O)c3cc(F)c(N4CC(N)C4)c(Cl)c32)cnc1Cl`, the figure is 280 °C; as for `CC1CC(C)CN(S(=O)(=O)c2ccc(F)c(C(=O)O)c2)C1` (stereo unspecified), 140 °C; as for `CCCCCCCCCCCC(=O)NC(CCC(=O)O)C(=O)O` (racemic), 101 to 104 °C.
Turning to `O=c1c(-c2ccc(O)cc2)coc2ccccc12`, the melting point lay within 237 to 238 °C.
On to `O=C(O)CCCCNS(=O)(=O)c1ccc(N2CCCCCC2)cc1`, for which the melting point lay within 135 to 140 °C.
As for `COc1ccc(CC(=O)NC(NC(Cc2ccccc2C)=NC#N)C(C)(C)C)cc1` (stereo unspecified), the figure is 199 to 201 °C; as for `COc1ccnc(N2CCN(C(=S)c3ccccc3)CC2)n1`, 125 to 129 °C; as for `Clc1cc(CCc2ccccn2)c2oc(-c3cccs3)nc2c1`, 90 to 91 °C.
`CC(C)(C)OC(=O)N1C[C@@H](CC(=O)C(=[N+]=[N-])C(=O)OCc2ccc([N+](=O)[O-])cc2)[C@H]2NC(=O)[C@H]21` registered a melting point of 132 to 134 °C.
`COc1ccc2c(NCCN3CCOCC3)noc2c1` displayed a melting point of 85 to 86 °C.
As for `CC(C)c1nn(-c2ccc(C(F)(F)F)cn2)cc1CCCCOc1ccc(CC(=O)O)cc1`, the figure is 130 to 131 °C; as for `NC(=O)c1ccc2[nH]nnc2c1`, 178 to 184 °C; as for `COc1ccccc1-c1cc(F)cc(OCc2ccc3c(-c4ccoc4)cc(C#N)nc3c2)c1`, 132 to 134 °C.
The molecule `CC(C)(C)OC(=O)NC[C@H]1CN(c2ccc3c(c2)CCCCC3=O)C(=O)O1` returned a melting point of 155 to 157 °C.
In the case of `O=C1NS(=O)(=O)c2cccc(O)c21` it was 228 °C; in that of `CCCc1nc2c(N)nc3cc(OCCCNC(=O)OC(C)(C)C)ccc3c2s1`, 146 to 149 °C; in that of `COc1ccc(N2CCN(c3c(C)c(C)c4c(c3C)C(O)(Cc3ccccc3)C(C)(C)O4)CC2)cc1` (stereo unspecified), 152 to 153 °C.
Take `COC(C)=CC(=O)Nc1ccc(Cl)c(Cl)c1`: the melting point came to 123 °C.
As for `COc1cc2c(cc1O)CC(C)(C)N(C(=O)c1cc(OC)c(OC)c(OC)c1)C2C` (stereo unspecified), the figure is 198 to 200 °C.
`CN(C)c1ccc(CN[C@@H](C(=O)O)[C@H](O)[C@H](Cc2ccccc2)NC(=O)OC(C)(C)C)cc1` gave a melting point of 202 to 204 °C.
Molecule `CC(C)(C)c1cc(CN(C=O)n2ccnc2)cc(C(C)(C)C)c1O` yielded a melting point of 167 °C.
In the case of `CN1CC[C@H](c2c(O)cc(O)c3c(=O)cc(-c4ccccc4Cl)oc23)[C@H](O)C1`, the melting point was found to be 182 °C.
As for `[N-]=[N+]=NCc1cc(C(F)(F)F)cc(C(F)(F)F)c1`, the figure is 30 to 32 °C; as for `CC(=O)c1c(O)cccc1OCC(O)COc1ccc(Cl)cc1` (stereo unspecified), 112 to 114 °C.
